In patent US11685741B2, “Fluorescent probes” (University of Massachusetts, priority 2017, dated 2023):

What was measured:
Caco-2 cells = test: Imaging labile iron pools in hepcidin-stimulated Caco-2 cells; type: cell-based, human
Description: For kinetic experiment, Caco-2 cells (ATCC) were maintained in Dulbecco's minimal essential medium (DMEM, ATCC) supplemented with 10% fetal bovine serum (FBS, ATCC), 100 U/ml penicillin G, and 100 μg/ml streptomycin at 37° C. in a humid atmosphere of 5% CO2 atmosphere. The culture medium was replaced with a fresh medium every 2-3 days. After being nearly confluent, the cells were used for experiment.
The ability of NIRh-Fret to monitor the changes in cellular labile Fe^2+ stores triggered by hepcidin stimulation, a key iron regulatory hormone produced by the liver which controls iron homeostasis was studied (C. H. Park, et al., J. Biol. Chem., 2001, 276, 7806; G. Nicolas, et al, Blood Cells Mol. Dis., 2002, 29, 327; and T. Ganz, Blood, 2003, 102, 783). […] For Fe^2+ replete conditions, live Caco-2 cells were incubated with 100 μM of ferrous ammonium sulfate (Fe (NH4)2(SO4)2) at 37° C. for 6 h followed by washing with DMEM medium to remove excess Fe^2+ and then 10 μM of NIRh-Fret was added to the culture media and was incubated at 37° C. for 30 min. For hepcidin stimulated condition, Cells was treated first with 100 μM of ferrous ammonium sulfate (Fe (NH4)2(SO4)2) for 1 h, followed by addition of 0.5 μM hepcidin and then incubated for another 5 h.

[1] = Metal ion sensing: UV-vis and fluorescence response to Fe2+ and other metal ions
Description: Selectivity and spectroscopic properties of the Rh6GD sensor were investigated to evaluate the performance of the fluorescence sensor in solution. The solution of metal ions were prepared from chloride salts of Ni^2+, Fe^3+, Cu^2+, Mn^2+, Hg^2+, Na^+, Ca^2+, Zn^2+, Ag^+, and nitrate salts of Mg^2+, K^+, Co^2+ (1 mM) in deionized water, except for Cu^2+ and Co^2+, which were dissolved in acetonitrile anhydrous. Solution of Cu^+ was freshly prepared by dissolving tetrakis(acetonitrile)copper(I) (Sigma-Aldrich) into double-distilled water. […]
(§1) The color change for Fe^2+ is readily detected visually. […]
The changes in fluorescence spectra of Rh6GD with the addition of different metal ions in H2O/THF (pH 7.32, v/v 4:1) are shown in FIG. 23. When Fe^2+ was added into the solution of Rh6GD, a large fluorescence enhancement at 549 nm was observed, induced by the complexation of Fe^2+.
Moreover, upon the addition of 1 equiv of Fe^2+ into solutions containing one of the other metal ions tested, the fluorescence was activated and the intensity increased to a level similar to that observed in the presence of Fe^2+ only (the black bars in FIG. 24).
Metal ion selectivity and spectroscopic properties of the sensor were investigated to evaluate the performance of the fluorescence sensor Rh101D. […]
as §1

SMILES | fluorescence of cells with sensor only (Caco-2 cells; 10 μM NIRh-Fret) | fluorescence of hepcidin-treated, iron supplemented cells versus Fe^2+ supplementation only (Caco-2 cells; 100 μM ferrous ammonium sulfate 1 h, then 0.5 μM hepcidin 5 h) | fluorescence after Fe^2+, hepcidin and Bpy (Caco-2 cells; 40 min 1 mM Bpy, versus Fe^2+ supplementation only) | fluorescence enhancement response to Fe^2+ [1] | emission intensity enhancement ([1]; 1.0 equiv of Fe^2+, H2O/THF pH 7.32, 549 nm (Rh6GD), 743 nm (NIRh-Fret))
CCN(CC)c1ccc2c(c1)OC1=C(CCC/C1=C\C=C1\N(C)c3ccccc3C1(C)C)C21c2ccccc2C(=O)N1/N=C\C=C\c1ccc(N(C)C)cc1 (centres unmarked) [NIRh-Fret, (E)-6′-(diethylamino)-2-(((1Z,2E)-3-(4-(dimethylamino)phenyl)allylidene)amino)-4′-(2-((E)-1,3,3-trimethylindolin-2-ylidene)ethylidene)-1′,2′,3′,4′-tetrahydrospiro[isoindoline-1,9′-xanthen]-3-one] | weak fluorescence | significant increase in fluorescent signals | decrease in fluorescence signal |  | 
CCNc1cc2c(cc1C)C1(c3cc(C)c(NCC)cc3O2)c2ccccc2C(=O)N1/N=C/C=C/c1ccc(N(C)C)cc1 [Rh6GD, 2-(((1E,2E)-3-(4-(dimethylamino)phenyl)allylidene)amino)-3′,6′-bis(ethylamino)-2′,7′-dimethylspiro[isoindoline-1,9′-xanthen]-3-one] |  |  |  | 3 fold | around 3 times
